Reference: ChEMBL document CHEMBL1142146, “Quinupristin-dalfopristin nonsusceptibility in pneumococci from sickle cell disease patients” (2007)
In brackets after ≈: the same amount, converted by molar mass.

Experiments:
Type in all cases: functional
[1] = test system: Streptococcus pneumoniae; assay: Antibacterial activity against Pneumococcus CDC023 isolated from sickle cell disease patient
[2] = test system: Streptococcus pneumoniae; assay: Antibacterial activity against Pneumococcus DAW70 isolated from sickle cell disease patient
[3] = test system: Streptococcus pneumoniae; assay: Antibacterial activity against Pneumococcus CDC018 isolated from sickle cell disease patient
[4] = test system: Streptococcus pneumoniae; assay: Antibacterial activity against Pneumococcus DAW22 isolated from sickle cell disease patient
[5] = test system: Streptococcus pneumoniae; assay: Antibacterial activity against Pneumococcus DAW53 isolated from sickle cell disease patient
[6] = test system: Streptococcus pneumoniae; assay: Antibacterial activity against Pneumococcus DAW51 isolated from sickle cell disease patient
[7] = test system: Streptococcus pneumoniae; assay: Antibacterial activity against Pneumococcus CDC050 isolated from sickle cell disease patient
[8] = test system: Streptococcus pneumoniae; assay: Antibacterial activity against Pneumococcus DAW27 isolated from sickle cell disease patient
[9] = test system: Streptococcus pneumoniae; assay: Antibacterial activity against Pneumococcus DAW19 isolated from sickle cell disease patient
[10] = test system: Streptococcus pneumoniae; assay: Antibacterial activity against Pneumococcus DAW15 isolated from sickle cell disease patient
[11] = test system: Streptococcus pneumoniae; assay: Antibacterial activity against Pneumococcus DAW66 isolated from sickle cell disease patient
[12] = test system: Streptococcus pneumoniae; assay: Antibacterial activity against Pneumococcus DAW6 isolated from sickle cell disease patient
[13] = test system: Streptococcus pneumoniae; assay: Antibacterial activity against Pneumococcus DAW14 isolated from sickle cell disease patient
[14] = test system: Streptococcus pneumoniae; assay: Antibacterial activity against Pneumococcus CDC068 isolated from sickle cell disease patient
[15] = test system: Streptococcus pneumoniae; assay: Antibacterial activity against Pneumococcus DAW12 isolated from sickle cell disease patient
[16] = test system: Streptococcus pneumoniae; assay: Antibacterial activity against Pneumococcus DAW65 isolated from sickle cell disease patient
[17] = test system: Streptococcus pneumoniae; assay: Antibacterial activity against Pneumococcus DAW75 isolated from sickle cell disease patient
[18] = test system: Streptococcus pneumoniae; assay: Antibacterial activity against Pneumococcus DAW57 isolated from sickle cell disease patient
[19] = test system: Streptococcus pneumoniae; assay: Antibacterial activity against Pneumococcus DAW26 isolated from sickle cell disease patient
[20] = test system: Streptococcus pneumoniae; assay: Antibacterial activity against Pneumococcus DAW61 isolated from sickle cell disease patient
[21] = test system: Streptococcus pneumoniae; assay: Antibacterial activity against Pneumococcus DAW8 isolated from sickle cell disease patient
[22] = test system: Streptococcus pneumoniae; assay: Antibacterial activity against Pneumococcus DAW13 isolated from sickle cell disease patient
[23] = test system: Streptococcus pneumoniae; assay: Antibacterial activity against Pneumococcus DAW86 isolated from sickle cell disease patient
[24] = test system: Streptococcus pneumoniae; assay: Antibacterial activity against Pneumococcus DAW2 isolated from sickle cell disease patient
[25] = test system: Streptococcus pneumoniae; assay: Antibacterial activity against Pneumococcus DAW9 isolated from sickle cell disease patient
[26] = test system: Streptococcus pneumoniae; assay: Antibacterial activity against Pneumococcus CDC001 isolated from sickle cell disease patient
[27] = test system: Streptococcus pneumoniae; assay: Antibacterial activity against Pneumococcus DAW24 isolated from sickle cell disease patient
[28] = test system: Streptococcus pneumoniae; assay: Antibacterial activity against Pneumococcus CDC063 isolated from sickle cell disease patient
[29] = test system: Streptococcus pneumoniae; assay: Antibacterial activity against Pneumococcus CDC020 isolated from sickle cell disease patient
[30] = test system: Streptococcus pneumoniae; assay: Antibacterial activity against Pneumococcus DAW67 isolated from sickle cell disease patient
[31] = test system: Streptococcus pneumoniae; assay: Antibacterial activity against Pneumococcus CDC013 isolated from sickle cell disease patient
[32] = test system: Streptococcus pneumoniae; assay: Antibacterial activity against Pneumococcus DAW68 isolated from sickle cell disease patient
[33] = test system: Streptococcus pneumoniae; assay: Antibacterial activity against Pneumococcus DAW62 isolated from sickle cell disease patient

Structure (SMILES)	MIC [1] [µg/mL]	MIC [2] [µg/mL]	MIC [3] [µg/mL]	MIC [4] [µg/mL]	MIC [5] [µg/mL]	MIC [6] [µg/mL]	MIC [7] [µg/mL]	MIC [8] [µg/mL]	MIC [9] [µg/mL]	MIC [10] [µg/mL]	MIC [11] [µg/mL]	MIC [12] [µg/mL]	MIC [13] [µg/mL]	MIC [14] [µg/mL]	MIC [15] [µg/mL]	MIC [16] [µg/mL]	MIC [17] [µg/mL]	MIC [18] [µg/mL]	MIC [19] [µg/mL]	MIC [20] [µg/mL]	other results
CCC[C@@H]1C[C@@H](C(=O)N[C@@H]([C@H]2O[C@H](SC)[C@H](O)[C@@H](O)[C@H]2O)[C@H](C)Cl)N(C)C1 [CLINDAMYCIN]	0.125 (≈ 0.294 µM)	0.38 (≈ 0.894 µM)	256 (≈ 602 µM)	256 (≈ 602 µM)	0.25 (≈ 0.588 µM)	0.25 (≈ 0.588 µM)	0.25 (≈ 0.588 µM)	256 (≈ 602 µM)	0.19 (≈ 0.447 µM)	0.38 (≈ 0.894 µM)	0.25 (≈ 0.588 µM)	0.038 (≈ 0.0894 µM)	0.25 (≈ 0.588 µM)	0.25 (≈ 0.588 µM)	0.25 (≈ 0.588 µM)	0.25 (≈ 0.588 µM)	0.125 (≈ 0.294 µM)	256 (≈ 602 µM)	0.25 (≈ 0.588 µM)	0.5 (≈ 1.18 µM)	MIC [21]: 0.25 µg/mL (≈ 0.588 µM); MIC [22]: 0.25 µg/mL (≈ 0.588 µM); MIC [23]: 0.25 µg/mL (≈ 0.588 µM); MIC [24]: 0.25 µg/mL (≈ 0.588 µM); MIC [25]: 256 µg/mL (≈ 602 µM); MIC [26]: 0.19 µg/mL (≈ 0.447 µM); MIC [27]: 0.25 µg/mL (≈ 0.588 µM); MIC [28]: 0.25 µg/mL (≈ 0.588 µM)
CC[C@H]1OC(=O)[C@H](C)[C@@H](O[C@H]2C[C@@](C)(OC)[C@@H](O)[C@H](C)O2)[C@H](C)[C@@H](O[C@@H]2O[C@H](C)C[C@H](N(C)C)[C@H]2O)[C@](C)(O)C[C@@H](C)C(=O)[C@H](C)[C@@H](O)[C@]1(C)O [ERYTHROMYCIN]	0.125 (≈ 0.17 µM)	0.19 (≈ 0.259 µM)	256 (≈ 349 µM)	256 (≈ 349 µM)	0.25 (≈ 0.341 µM)	0.19 (≈ 0.259 µM)	0.25 (≈ 0.341 µM)	256 (≈ 349 µM)	24 (≈ 32.7 µM)	0.19 (≈ 0.259 µM)	0.19 (≈ 0.259 µM)	0.25 (≈ 0.341 µM)	0.19 (≈ 0.259 µM)	0.19 (≈ 0.259 µM)	0.19 (≈ 0.259 µM)	0.19 (≈ 0.259 µM)	0.19 (≈ 0.259 µM)	256 (≈ 349 µM)	0.125 (≈ 0.17 µM)	256 (≈ 349 µM)	MIC [29]: 256 µg/mL (≈ 349 µM); MIC [30]: 0.125 µg/mL (≈ 0.17 µM); MIC [31]: 0.125 µg/mL (≈ 0.17 µM); MIC [32]: 0.125 µg/mL (≈ 0.17 µM); MIC [21]: 0.125 µg/mL (≈ 0.17 µM); MIC [22]: 4 µg/mL (≈ 5.45 µM); MIC [23]: 0.19 µg/mL (≈ 0.259 µM); MIC [24]: 0.125 µg/mL (≈ 0.17 µM); MIC [25]: 256 µg/mL (≈ 349 µM); MIC [26]: 0.19 µg/mL (≈ 0.259 µM); MIC [27]: 0.125 µg/mL (≈ 0.17 µM); MIC [28]: 32 µg/mL (≈ 43.6 µM); MIC [33]: 0.125 µg/mL (≈ 0.17 µM)
